The values below come from patent publication US5053418A, “Antiprotozoal agents” (Burroughs Wellcome Co., priority 1983, dated 1991).

By inhibition is commonly meant the change of the read-out against control, counted positive when it falls. As usually defined, the % inhibition is the change of the read-out against control, counted positive when it falls. Usually inhibition in vivo stands for the change of the read-out against control, counted positive when it falls.

For one test, the system named is P.falciparum. In words: In vitro activity against P.falciparum: inhibition of 3H-adenosine/3H-hypoxanthine incorporation (modified Desjardins). Type of test: cell-based. As to conditions: for inhibition at 6.25 pg/mL: 0.00000625 mg/L; for inhibition at 12.5 pg/mL: 0.0000125 mg/L; for ED50 for naphthoquinone / ED50 for Clopidol (4-pyridinol): 2580 min; for inhibition at 0.625 µg/mL: 0.625 mg/L; for inhibition at 1.25 µg/mL: 1.25 mg/L. The method, then:
Each of the two compounds to be tested were dissolved in ethanol at a concentration of 10 mg/L and serially diluted with RPMI 1640 medium and 10% (v/v) human plasma in microtitration plates. P.falciparum-parasitised and fresh blood cells were added together with ^3 H-adenosine or ^3 H-hypoxanthinein RPMI 1640 medium and 10% human plasma. The cultures were then incubated at 37° C. for 43 hours, harvested and the particulate contents collected on glass fibre filter papers which were washed copiously with water using a Cooke Microtiter System (Dynatech Labs. Europe); the filter papers were dried and the radioactivity measured using a scintillation counter. Infected, untreated and uninfected cultures were included as controls. Percent inhibition was correlated with dose to provide an IC50 for each drug alone.
For subsequent combination experiments the individual drug solutions and mixtures thereof were serially diluted.
By the method of Example 1 the effect of a number of naphthoquinone/clopidol (4-pyridinol) combinations on P.falciparum in vitro were determined.

For a further test, the system named is P.yoelii. In words: In vivo effect on P.yoelii in mice (inhibition of parasitaemia). The method, then:
The naphthoquinone and the pyridinol were each suspended in 0.25% (w/v) celacol in water by milling for 16-24 hours at 26° C. The suspensions were subsequently serially diluted with 0.25% (w/v) celacol in water. At time 0, 0.1 ml of a suspension of 10^7 P.yoelii-parasitised red blood cells/ml of phosphate buffered saline were injected intravenously into 15-20 g mice through a tail vein. Groups of 5 mice per treatment were dosed orally at times 6, 22, 30, 46, 54, 70 and 78 hours with 0.2 ml of the drug suspension. Tail-blood smears were taken at 96 hours, stained with Giemsa and the percentage of red blood cells infected determined and compared to untreated, infected controls. Percent inhibition was correlated with dose to provide ED50 values for each drug alone. In subsequent experiments dilutions of the two drugs, alone and in combination were used, and the percentage inhibition of parasitaemia and ED50 values (of each drug at fixed concentrations of the other) were determined. The results are shown respectively in Tables V and VI. A number of combinations of clopidol (4-pyridinol) and naphthoquinones were assayed and compared with each drug alone for their antimalarial effect against P.yoelii in vivo by the method of Example 4.

Setting [1] is: Plasmodium falciparum, naphthoquinone alone.
The mark [2] stands for this setting: Plasmodium falciparum, 4-pyridinol analogue alone.

As to `CC(C)(C)C1CCC(C2=C(O)C(=O)c3ccccc3C2=O)CC1` (centres unmarked) [drawing 10], in the test on P.falciparum (setting [1]), the inhibition at 6.25 pg/mL came to 17% and the inhibition at 12.5 pg/mL amounted to 13%.
On to `CC(C)(C)C1CCC(C2=C(Cl)C(=O)c3ccccc3C2=O)CC1` (centres unmarked) [2-(4-t-butylcyclohexyl)-3-chloro-1,4-naphthoquinone] [listing 1 of 2 here], for which the ED50 for naphthoquinone with P.falciparum (fixed clopidol 0.000 mg/L (alone)) amounted to 0.851 µg/mL; in the test with P.falciparum (fixed clopidol 0.00625 mg/L), 0.699 µg/mL; in the test with P.falciparum (fixed clopidol 0.0125 mg/L) it was 0.401 µg/mL; in the test with P.falciparum (fixed clopidol 0.0250 mg/L), 0.478 µg/mL; in the test on P.falciparum (fixed clopidol 0.0500 mg/L) it was 0.447 µg/mL; in the test on P.falciparum (fixed clopidol 0.100 mg/L) it was 0.287 µg/mL. For the same molecule, the ED50 for naphthoquinone in the test with P.falciparum (fixed clopidol 0.200 mg/L) was found to be 0.198 µg/mL; in the test with P.falciparum (fixed clopidol 0.400 mg/L), 0.155 µg/mL; in the test on P.falciparum (fixed clopidol 0.800 mg/L), 0.0801 µg/mL; in the test with P.falciparum (fixed clopidol 1.60 mg/L), 0.0303 µg/mL; in the test with P.falciparum (fixed clopidol 3.20 mg/L), 0.0075 µg/mL.
With `CC(C)(C)C1CCC(C2=C(Cl)C(=O)c3ccccc3C2=O)CC1` (centres unmarked) [drawing 6, 2-(4-t-butylcyclohexyl)-3-chloro-1,4-naphthoquinone], the “% inhibition” value is 14% with P.falciparum (naphthoquinone alone, 0.125 mg/L) and 17% with P.falciparum (naphthoquinone alone, 0.25 mg/L).
For `CC(=O)OC1=C(C2CCC(C)(C)CC2)C(=O)c2ccccc2C1=O`, in the test with P.falciparum (Plasmodium falciparum, naphthoquinone alone, 0.000750 mg/L), the inhibition at 0.00075 µg/mL amounted to 0%. Further, the inhibition at 0.0015 µg/mL in the test with P.falciparum (Plasmodium falciparum, naphthoquinone alone, 0.00150 mg/L) turned out to be 0%.
Take `CC(C)(C)C1CCCC(C2=C(O)C(=O)c3ccccc3C2=O)C1` (centres unmarked): the inhibition at 0.05 µg/mL in the test on P.falciparum (Plasmodium falciparum, naphthoquinone alone, 0.0500 mg/L) came to 8%. Also, in the test with P.falciparum (Plasmodium falciparum, naphthoquinone alone, 0.100 mg/L), the inhibition at 0.1 µg/mL came to 24%.
For `CCC(C)(C)C1CCC(C2=C(O)C(=O)c3ccccc3C2=O)CC1` (centres unmarked), in the test on P.falciparum (setting [1]), the inhibition at 6.25 pg/mL is 31% and the inhibition at 12.5 pg/mL was found to be 51%.
On to `CCCc1nc(CCC)c(Br)c(O)c1Br` [X = Br, R^3 = Pr, 3,5-dibromo-2,6-dipropyl-4-pyridinol], for which the inhibition at 3.125 µg/mL in the test with P.falciparum (Plasmodium falciparum, 4-pyridinol analogue alone, 3.125 mg/L) came out at 9%. Besides, the inhibition at 6.25 µg/mL in the test with P.falciparum (Plasmodium falciparum, 4-pyridinol analogue alone, 6.25 mg/L) stood at 15%.
On to `CC(C)(C)C1CCC(C2=C(Cl)C(=O)c3ccccc3C2=O)CC1` (centres unmarked) [2-(4-t-butylcyclohexyl)-3-chloro-1,4-naphthoquinone] [listing 2 of 2 here], for which the inhibition at 0.0625 µg/mL with P.falciparum (Plasmodium falciparum, naphthoquinone alone, 0.0625 mg/L) was found to be 18%. For the same molecule, the inhibition at 0.125 µg/mL with P.falciparum (Plasmodium falciparum, naphthoquinone alone, 0.125 mg/L) was 14%. Besides, the inhibition at 0.25 µg/mL in the test on P.falciparum (Plasmodium falciparum, naphthoquinone alone, 0.25 mg/L) turned out to be 17%. Moreover, the inhibition at 0.5 µg/mL in the test with P.falciparum (Plasmodium falciparum, naphthoquinone alone, 0.50 mg/L) came to 31%. Further, in the test on P.falciparum (Plasmodium falciparum, naphthoquinone alone, 1.0 mg/L), the inhibition at 1 µg/mL came to 55%. In the test on P.falciparum (Plasmodium falciparum, naphthoquinone alone, 2.0 mg/L), the inhibition at 2 µg/mL was 75%.
`Cc1nc(C)c(Br)c(O)c1Br` [X = Br, R^3 = Me, 3,5-dibromo-2,6-dimethyl-4-pyridinol]: the inhibition at 0.125 µg/mL with P.falciparum (Plasmodium falciparum, 4-pyridinol analogue alone, 0.125 mg/L) stood at 2%. Moreover, the inhibition at 0.25 µg/mL in the test on P.falciparum (Plasmodium falciparum, 4-pyridinol analogue alone, 0.25 mg/L) amounted to 14%.
With `Cc1ccc(C2CCC(C3=C(O)C(=O)c4ccccc4C3=O)CC2)cc1C` (centres unmarked), the inhibition at 0.000125 µg/mL with P.falciparum (Plasmodium falciparum, naphthoquinone alone, 0.000125 mg/L) was found to be 15%. Moreover, in the test with P.falciparum (Plasmodium falciparum, naphthoquinone alone, 0.00025 mg/L), the inhibition at 0.00025 µg/mL was found to be 30%.
For `CCCCCCCCCCCCCC1=C(O)C(=O)c2ccccc2C1=O` [(CH2)12 Me], in the test on P.falciparum (Plasmodium falciparum, naphthoquinone alone, 0.0078 mg/L), the inhibition at 0.0078 µg/mL was 4%. Also, the inhibition at 0.0156 µg/mL in the test on P.falciparum (Plasmodium falciparum, naphthoquinone alone, 0.0156 mg/L) worked out at 10%.
As for `O=C1C(O)=C(CCCCCCCCC2CCCCC2)C(=O)c2ccccc21`, the inhibition in vivo at 0.5 mg/kg in the test on P.yoelii (Plasmodium yoelii, po, 96 h, naphthoquinone alone, 0.50 mg/Kg × 7) was 7%. Moreover, the inhibition in vivo at 1 mg/kg with P.yoelii (Plasmodium yoelii, po, 96 h, naphthoquinone alone, 1.0 mg/Kg × 7) was determined as 19%. For the same molecule, the “% inhibition of parasitaemia (combination)” value with P.yoelii (naphthoquinone 0.50 + clopidol 2.5 mg/Kg × 7) stood at 10%; with P.yoelii (naphthoquinone 0.50 + clopidol 5.0 mg/Kg × 7) it was 45%; with P.yoelii (naphthoquinone 1.0 + clopidol 2.5 mg/Kg × 7), 31%; with P.yoelii (naphthoquinone 1.0 + clopidol 5.0 mg/Kg × 7), 55%.
Consider `O=C1C(O)=C(C2CCCC2)C(=O)c2ccccc21`, for which, in the test on P.falciparum (setting [1]), the inhibition at 0.625 µg/mL was determined as 0% and the inhibition at 1.25 µg/mL came to 2%.
Consider `CCCc1nc(CCC)c(Cl)c(O)c1Cl` [X = Cl, R^3 = Pr, 3,5-dichloro-2,6-dipropyl-4-pyridinol], for which, in the test on P.falciparum (setting [2]), the inhibition at 0.625 µg/mL stood at 12% and the inhibition at 1.25 µg/mL amounted to 24%.
For the molecule `CCCCCCCCCC1=C(O)C(=O)c2ccccc2C1=O` [(CH2)8 Me, 2-n-nonyl-3-hydroxy-1,4-naphthoquinone], the inhibition in vivo at 3 mg/kg in the test with P.yoelii (Plasmodium yoelii, po, 96 h, naphthoquinone alone, 3.0 mg/Kg × 7) stood at 3%. Further, the inhibition in vivo at 9 mg/kg with P.yoelii (Plasmodium yoelii, po, 96 h, naphthoquinone alone, 9.0 mg/Kg × 7) came out at 69%. Moreover, the “% inhibition of parasitaemia (combination)” value with P.yoelii (naphthoquinone 3.0 + clopidol 1.4 mg/Kg × 7) is on record as 42%; with P.yoelii (naphthoquinone 3.0 + clopidol 4.3 mg/Kg × 7), 76%; with P.yoelii (naphthoquinone 9.0 + clopidol 1.4 mg/Kg × 7) it was 88%; in the test with P.yoelii (naphthoquinone 9.0 + clopidol 4.3 mg/Kg × 7), 99%.
As for `Cc1nc(C)c(Cl)c(O)c1Cl` [Clopidol, 3,5-dichloro-2,6-dimethyl-4-pyridinol, reference compound], the inhibition at 0.8 µg/mL in the test on P.falciparum (Plasmodium falciparum, 4-pyridinol alone, 0.80 mg/L) amounted to 44%. Also, the inhibition at 1.6 µg/mL in the test with P.falciparum (Plasmodium falciparum, 4-pyridinol alone, 1.6 mg/L) was 55%. In the test on P.falciparum (Plasmodium falciparum, 4-pyridinol alone, 3.2 mg/L), the inhibition at 3.2 µg/mL amounted to 74%. For the same molecule, the “% inhibition” value was 24% in the test on P.falciparum (clopidol (4-pyridinol) alone, 0.10 mg/L, listed as 4-pyridinol); 18% in the test on P.falciparum (clopidol (4-pyridinol) alone, 0.20 mg/L, listed as 4-pyridinol); 22% with P.falciparum (clopidol (4-pyridinol) alone, 0.40 mg/L, listed as 4-pyridinol). For the same molecule, the “ED50 for Clopidol (4-pyridinol)” value in the test with P.falciparum (fixed naphthoquinone 0.0 mg/L (alone)) is recorded as 1.18 (1.44 to 0.980) mg/L; in the test on P.falciparum (fixed naphthoquinone 0.00781 mg/L), 1.63 mg/L; in the test on P.falciparum (fixed naphthoquinone 0.0156 mg/L) it was 0.128 mg/L; with P.falciparum (fixed naphthoquinone 0.0313 mg/L), 2.57 mg/L; in the test on P.falciparum (fixed naphthoquinone 0.0625 mg/L), 1.03 (14.2 to 0.405) mg/L; in the test with P.falciparum (fixed naphthoquinone 0.125 mg/L), 0.578 mg/L. The “ED50 for Clopidol (4-pyridinol)” value in the test with P.falciparum (fixed naphthoquinone 0.250 mg/L) is listed as 0.074 mg/L; with P.falciparum (fixed naphthoquinone 0.500 mg/L), 0.052 mg/L; with P.falciparum (fixed naphthoquinone 1.00 mg/L) it was 0.0092 mg/L; in the test with P.falciparum (fixed naphthoquinone 2.00 mg/L) it was 0.00097 mg/L; with P.falciparum (fixed naphthoquinone 4.00 mg/L), 0.00012 mg/L; in the test on P.yoelii (fixed naphthoquinone 0.000 (alone)), 22.5 (27.6 to 19.4) mg/Kg/dose. For the same molecule, the “ED50 for Clopidol (4-pyridinol)” value with P.yoelii (fixed naphthoquinone 0.019) was 13.8 (21.5 to 10.7) mg/Kg/dose; with P.yoelii (fixed naphthoquinone 0.0375) it was 5.14 (6.22 to 4.23) mg/Kg/dose; with P.yoelii (fixed naphthoquinone 0.075), 1.87 (2.45 to 1.30) mg/Kg/dose; in the test with P.yoelii (fixed naphthoquinone 0.15), 0.522 (0.946 to 0.0356) mg/Kg/dose. In addition, the inhibition in vivo at 1.9 mg/kg in the test on P.yoelii (Plasmodium yoelii, po, 96 h, clopidol alone, 1.9 mg/Kg/dose, 7 doses) was determined as 6%. In addition, in the test on P.yoelii (Plasmodium yoelii, po, 96 h, clopidol alone, 2.5 mg/Kg × 7), the inhibition in vivo at 2.5 mg/kg was 0%. In addition, the inhibition in vivo at 3.7 mg/kg with P.yoelii (Plasmodium yoelii, po, 96 h, clopidol alone, 3.7 mg/Kg/dose, 7 doses) is 17%. Besides, in the test on P.yoelii (Plasmodium yoelii, po, 96 h, clopidol alone, 7.5 mg/Kg/dose, 7 doses), the inhibition in vivo at 7.5 mg/kg worked out at 13%. In the test with P.yoelii (Plasmodium yoelii, po, 96 h, clopidol alone, 13 mg/Kg × 7), the inhibition in vivo at 13 mg/kg was determined as 5%. In the test with P.yoelii (Plasmodium yoelii, po, 96 h, clopidol alone, 15 mg/Kg/dose, 7 doses), the inhibition in vivo at 15 mg/kg is 34%. The inhibition in vivo at 30 mg/kg with P.yoelii (Plasmodium yoelii, po, 96 h, clopidol alone, 30 mg/Kg/dose, 7 doses) is 61%.
